These results are taken from PubChem BioAssay AID1259407 (Chemical Carcinogenesis Research Information System (CCRIS), 2018).

Structures are written as SMILES. Active and inactive are the calls of the source. How the calls were made is not given here.

In the data set the test system is CCRIS mutagenicity, Ames/micronucleus/aberration tests. The data set can be described thus: CCRIS mutagenicity studies.
Where [1] appears, read: Test System: AMES SALMONELLA TYPHIMURIUM, Strain/Indicator: TA98, Metabolic Activation: NONE, Method: PREINCUBATION
[2] abbreviates: Test System: AMES SALMONELLA TYPHIMURIUM, Strain/Indicator: TA100, Metabolic Activation: NONE, Method: PREINCUBATION
Where [3] appears, read: Test System: AMES SALMONELLA TYPHIMURIUM, Strain/Indicator: TA1535, Metabolic Activation: NONE, Method: PREINCUBATION
[4] abbreviates: Test System: AMES SALMONELLA TYPHIMURIUM, Strain/Indicator: TA97, Metabolic Activation: NONE, Method: PREINCUBATION

Turning to `ClCC(Cl)COCC(Cl)CCl` (configuration not stated), the mutagenic call runs as follows: under setting [1], “inactive; negative”; (Test System: AMES SALMONELLA TYPHIMURIUM, Strain/Indicator: TA98, Metabolic Activation: RAT LIVER S-9, AROCLOR 1254 (10%), Method: PREINCUBATION) “active; positive”; under setting [2], “inactive; negative”; (Test System: AMES SALMONELLA TYPHIMURIUM, Strain/Indicator: TA100, Metabolic Activation: RAT LIVER S-9, AROCLOR 1254 (10%), Method: PREINCUBATION) “active; positive”; under setting [3], “inactive; negative”; (Test System: AMES SALMONELLA TYPHIMURIUM, Strain/Indicator: TA1535, Metabolic Activation: RAT LIVER S-9, AROCLOR 1254 (10%), Method: PREINCUBATION) “active; positive”. The mutagenic call is “inactive; negative” (Test System: AMES SALMONELLA TYPHIMURIUM, Strain/Indicator: TA1538, Metabolic Activation: NONE, Method: PREINCUBATION) and “inactive; negative” (Test System: AMES SALMONELLA TYPHIMURIUM, Strain/Indicator: TA1538, Metabolic Activation: RAT LIVER S-9, AROCLOR 1254 (10%), Method: PREINCUBATION).
Take `Cn1cnc2c(N)ncnc21`: the mutagenic call runs as follows: (Test System: AMES SALMONELLA TYPHIMURIUM, Strain/Indicator: TA97, Metabolic Activation: NONE, Method: STANDARD PLATE) “inactive; negative”; (Test System: AMES SALMONELLA TYPHIMURIUM, Strain/Indicator: TA97, Metabolic Activation: RAT, LIVER, S-9, AROCLOR 1254, Method: STANDARD PLATE) “inactive; negative”; (Test System: AMES SALMONELLA TYPHIMURIUM, Strain/Indicator: TA98, Metabolic Activation: NONE, Method: STANDARD PLATE) “inactive; negative”; (Test System: AMES SALMONELLA TYPHIMURIUM, Strain/Indicator: TA98, Metabolic Activation: RAT, LIVER, S-9, AROCLOR 1254, Method: STANDARD PLATE) “active; positive”; (Test System: AMES SALMONELLA TYPHIMURIUM, Strain/Indicator: TA100, Metabolic Activation: NONE, Method: STANDARD PLATE) “inactive; negative”; (Test System: AMES SALMONELLA TYPHIMURIUM, Strain/Indicator: TA100, Metabolic Activation: RAT, LIVER, S-9, AROCLOR 1254, Method: STANDARD PLATE) “inactive; negative”.
Turning to `CCC1(CC)C(=O)NC(=O)NC1=O`, under “End Point: IN VITRO MICRONUCLEUS, Test System: CHL/IU CELLS, Metabolic Activation: NONE”, the mutagenic call is “active; positive”.
With `C[C@@H](CN=[N+]=[N-])c1ccccc1`, the mutagenic call by setting is: under setting [2], “inactive; negative”; (Test System: AMES SALMONELLA TYPHIMURIUM, Strain/Indicator: TA100, Metabolic Activation: RAT, LIVER, S-9, PCB, Method: PREINCUBATION) “active; positive”.
Consider `Cc1cccc(Br)c1`, for which the mutagenic call is “inactive; negative” (Test System: AMES SALMONELLA TYPHIMURIUM, Strain/Indicator: TA97, Metabolic Activation: HAMSTER, LIVER, S-9, AROCLOR 1254 (10%), Method: PREINCUBATION); “inactive; negative” (Test System: AMES SALMONELLA TYPHIMURIUM, Strain/Indicator: TA97, Metabolic Activation: HAMSTER, LIVER, S-9, AROCLOR 1254 (30%), Method: PREINCUBATION); “inactive; negative” under setting [4]; “inactive; negative” (Test System: AMES SALMONELLA TYPHIMURIUM, Strain/Indicator: TA97, Metabolic Activation: RAT, LIVER, S-9, AROCLOR 1254 (10%), Method: PREINCUBATION); “inactive; negative” (Test System: AMES SALMONELLA TYPHIMURIUM, Strain/Indicator: TA97, Metabolic Activation: RAT, LIVER, S-9, AROCLOR 1254 (30%), Method: PREINCUBATION); “inactive; negative” (Test System: AMES SALMONELLA TYPHIMURIUM, Strain/Indicator: TA98, Metabolic Activation: HAMSTER, LIVER, S-9, AROCLOR 1254 (10%), Method: PREINCUBATION). Also, the mutagenic call runs as follows: (Test System: AMES SALMONELLA TYPHIMURIUM, Strain/Indicator: TA98, Metabolic Activation: HAMSTER, LIVER, S-9, AROCLOR 1254 (30%), Method: PREINCUBATION) “inactive; negative”; under setting [1], “inactive; negative”; (Test System: AMES SALMONELLA TYPHIMURIUM, Strain/Indicator: TA98, Metabolic Activation: RAT, LIVER, S-9, AROCLOR 1254 (10%), Method: PREINCUBATION) “inactive; negative”; (Test System: AMES SALMONELLA TYPHIMURIUM, Strain/Indicator: TA98, Metabolic Activation: RAT, LIVER, S-9, AROCLOR 1254 (30%), Method: PREINCUBATION) “inactive; negative”; (Test System: AMES SALMONELLA TYPHIMURIUM, Strain/Indicator: TA100, Metabolic Activation: HAMSTER, LIVER, S-9, AROCLOR 1254 (10%), Method: PREINCUBATION) “inactive; negative”; (Test System: AMES SALMONELLA TYPHIMURIUM, Strain/Indicator: TA100, Metabolic Activation: HAMSTER, LIVER, S-9, AROCLOR 1254 (30%), Method: PREINCUBATION) “inactive; negative”. Also, the mutagenic call under setting [2] is “inactive; negative”; the mutagenic call (Test System: AMES SALMONELLA TYPHIMURIUM, Strain/Indicator: TA100, Metabolic Activation: RAT, LIVER, S-9, AROCLOR 1254 (10%), Method: PREINCUBATION) was “inactive; negative”; the mutagenic call (Test System: AMES SALMONELLA TYPHIMURIUM, Strain/Indicator: TA100, Metabolic Activation: RAT, LIVER, S-9, AROCLOR 1254 (30%), Method: PREINCUBATION) is “inactive; negative”; the mutagenic call (Test System: AMES SALMONELLA TYPHIMURIUM, Strain/Indicator: TA1535, Metabolic Activation: HAMSTER, LIVER, S-9, AROCLOR 1254 (10%), Method: PREINCUBATION) was “inactive; negative”; the mutagenic call (Test System: AMES SALMONELLA TYPHIMURIUM, Strain/Indicator: TA1535, Metabolic Activation: HAMSTER, LIVER, S-9, AROCLOR 1254 (30%), Method: PREINCUBATION) was “inactive; negative”; the mutagenic call under setting [3] was “inactive; negative”. For the same compound, the mutagenic call is “inactive; negative” (Test System: AMES SALMONELLA TYPHIMURIUM, Strain/Indicator: TA1535, Metabolic Activation: RAT, LIVER, S-9, AROCLOR 1254 (10%), Method: PREINCUBATION); “inactive; negative” (Test System: AMES SALMONELLA TYPHIMURIUM, Strain/Indicator: TA1535, Metabolic Activation: RAT, LIVER, S-9, AROCLOR 1254 (30%), Method: PREINCUBATION); “inactive; negative” (Test System: AMES SALMONELLA TYPHIMURIUM, Strain/Indicator: TA1537, Metabolic Activation: HAMSTER, LIVER, S-9, AROCLOR 1254 (30%), Method: PREINCUBATION); “inactive; negative” (Test System: AMES SALMONELLA TYPHIMURIUM, Strain/Indicator: TA1537, Metabolic Activation: NONE, Method: PREINCUBATION); “inactive; negative” (Test System: AMES SALMONELLA TYPHIMURIUM, Strain/Indicator: TA1537, Metabolic Activation: RAT, LIVER, S-9, AROCLOR 1254 (30%), Method: PREINCUBATION).
Regarding `CC(O)CN(CC(O)CO)N=O` (configuration not stated), the mutagenic call reads like this: (Test System: AMES SALMONELLA TYPHIMURIUM, Strain/Indicator: TA100, Metabolic Activation: HAMSTER, LIVER, S-9, 3-METHYLCHOLANTHRENE, Method: PREINCUBATION) “inactive; negative”; (Test System: AMES SALMONELLA TYPHIMURIUM, Strain/Indicator: TA100, Metabolic Activation: HAMSTER, LIVER, S-9, PHENOBARBITAL, Method: PREINCUBATION) “active; positive”; (Test System: AMES SALMONELLA TYPHIMURIUM, Strain/Indicator: TA100, Metabolic Activation: HAMSTER, LIVER, S-9, Method: PREINCUBATION) “inactive; negative”; (Test System: AMES SALMONELLA TYPHIMURIUM, Strain/Indicator: TA100, Metabolic Activation: MOUSE, LIVER, S-9, 3-METHYLCHOLANTHRENE, Method: PREINCUBATION) “inactive; negative”; (Test System: AMES SALMONELLA TYPHIMURIUM, Strain/Indicator: TA100, Metabolic Activation: MOUSE, LIVER, S-9, PHENOBARBITAL, Method: PREINCUBATION) “active; positive”; (Test System: AMES SALMONELLA TYPHIMURIUM, Strain/Indicator: TA100, Metabolic Activation: MOUSE, LIVER, S-9, Method: PREINCUBATION) “inactive; negative”. Besides, the mutagenic call by setting is: under setting [2], “inactive; negative”; (Test System: AMES SALMONELLA TYPHIMURIUM, Strain/Indicator: TA100, Method: PREINCUBATION) “active; positive”.
`CC(=O)CC(O)(CC(=O)O)C(=O)O` (configuration not stated): the mutagenic call under setting [4] was “inactive; negative”; the mutagenic call (Test System: AMES SALMONELLA TYPHIMURIUM, Strain/Indicator: TA97, Metabolic Activation: S-9, Method: PREINCUBATION) was “inactive; negative”; the mutagenic call (Test System: AMES SALMONELLA TYPHIMURIUM, Strain/Indicator: TA102, Metabolic Activation: NONE, Method: PREINCUBATION) was “inactive; negative”; the mutagenic call (Test System: AMES SALMONELLA TYPHIMURIUM, Strain/Indicator: TA102, Metabolic Activation: S-9, Method: PREINCUBATION) was “inactive; negative”.
